# Assay results: ChEMBL document CHEMBL1201862, “PubChem BioAssay data set” (2004)
#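 Cells were grown in 96-well plates and exposed to each compound for 48 hours at five concentrations; endpoints were interpolated linearly between bracketing concentrations, or set to the highest concentration if not reached. GI50 = concentration required for 50% inhibition of growth.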 The source made the active and inactive calls. Rule as the data show it: active = GI50 up to about 1.1 µM and inactive = higher.
# Tests used:
# Assay in all cases: DTP human tumour cell line panel, 48 h
# OVCAR-8 = tested on: OVCAR-8
# IGROV-1 = tested on: IGROV-1
# BT-549 = tested on: BT-549
# DU-145 = tested on: DU-145
# RPMI-8226 = tested on: RPMI-8226
# CCRF-CEM = tested on: CCRF-CEM
# XF498 = tested on: XF498
# Hs-578T = tested on: Hs-578T
# SK-MEL-2 = tested on: SK-MEL-2
# SN12C = tested on: SN12C
# SF-539 = tested on: SF-539
# NCI-H23 = tested on: NCI-H23
# NCI-H522 = tested on: NCI-H522
# UO-31 = tested on: UO-31
# 786-0 = tested on: 786-0
# Malme-3M = tested on: Malme-3M
# SNB-19 = tested on: SNB-19
# SK-MEL-5 = tested on: SK-MEL-5
# DLD-1 = tested on: DLD-1
# MDA-MB-231 = tested on: MDA-MB-231
# HCT-15 = tested on: HCT-15
# MDA-N = tested on: MDA-N
# HOP-18 = tested on: HOP-18
# MCF7 = tested on: MCF7
# NCI-H460 = tested on: NCI-H460
# MDA-MB-435 = tested on: MDA-MB-435
# SK-OV-3 = tested on: SK-OV-3
# OVCAR-4 = tested on: OVCAR-4
# HL-60 = tested on: HL-60
# LXFL 529 = tested on: LXFL 529
# NCI/ADR-RES = tested on: NCI/ADR-RES
# OVCAR-5 = tested on: OVCAR-5
# MOLT-4 = tested on: MOLT-4
# M19-MEL = tested on: M19-MEL
# SNB-75 = tested on: SNB-75
# HT-29 = tested on: HT-29
# UACC-257 = tested on: UACC-257
# SW-620 = tested on: SW-620
# PC-3 = tested on: PC-3
# COLO 205 = tested on: COLO 205
# KM12 = tested on: KM12
# SR = tested on: SR
# DMS-114 = tested on: DMS-114
# A549 = tested on: A549
# LOX IMVI = tested on: LOX IMVI
# DMS-273 = tested on: DMS-273
# HCC 2998 = tested on: HCC 2998
# HOP-62 = tested on: HOP-62
# UACC-62 = tested on: UACC-62
# HOP-92 = tested on: HOP-92
# A498 = tested on: A498
# M14 = tested on: M14
# TK-10 = tested on: TK-10
# ACHN = tested on: ACHN
# T47D = tested on: T47D
smiles,measurement,setting,value
Oc1cc(-c2cccc(Cl)c2)nc2cc3c(cc12)OCO3,GI50,OVCAR-8,0.647 µM (active)
same,GI50,IGROV-1,0.151 µM (active)
same,GI50,BT-549,0.284 µM (active)
same,GI50,DU-145,0.284 µM (active)
same,GI50,RPMI-8226,0.498 µM (active)
same,GI50,CCRF-CEM,0.519 µM (active)
same,GI50,XF498,1.4 µM (inactive)
same,GI50,Hs-578T,0.255 µM (active)
same,GI50,SK-MEL-2,0.207 µM (active)
same,GI50,SN12C,0.912 µM (active)
same,GI50,SF-539,0.257 µM (active)
same,GI50,NCI-H23,0.951 µM (active)
same,GI50,NCI-H522,0.334 µM (active)
same,GI50,UO-31,0.33 µM (active)
same,GI50,786-0,0.294 µM (active)
same,GI50,Malme-3M,0.138 µM (active)
same,GI50,SNB-19,0.726 µM (active)
same,GI50,SK-MEL-5,0.13 µM (active)
same,GI50,DLD-1,0.245 µM (active)
same,GI50,MDA-MB-231,2.44 µM (inactive)
same,GI50,HCT-15,0.269 µM
same,GI50,MDA-N,0.0255 µM (active)
same,GI50,HOP-18,1.5 µM (inactive)
same,GI50,MCF7,2.83 µM (inactive)
same,GI50,NCI-H460,0.274 µM (active)
same,GI50,MDA-MB-435,0.0377 µM (active)
same,GI50,SK-OV-3,0.326 µM (active)
same,GI50,OVCAR-4,> 75 µM (inactive)
same,GI50,HL-60,0.157 µM (active)
same,GI50,LXFL 529,0.19 µM (active)
same,GI50,NCI/ADR-RES,0.208 µM (active)
same,GI50,OVCAR-5,18.8 µM (inactive)
same,GI50,MOLT-4,1.89 µM (inactive)
same,GI50,M19-MEL,0.327 µM (active)
same,GI50,SNB-75,0.258 µM (active)
same,GI50,HT-29,2 µM (inactive)
same,GI50,UACC-257,0.366 µM (active)
same,GI50,SW-620,0.351 µM (active)
same,GI50,PC-3,0.308 µM (active)
same,GI50,COLO 205,1.85 µM (inactive)
same,GI50,KM12,0.24 µM (active)
same,GI50,SR,0.342 µM (active)
same,GI50,DMS-114,0.296 µM (active)
same,GI50,A549,2.47 µM (inactive)
same,GI50,LOX IMVI,0.305 µM (active)
same,GI50,DMS-273,0.327 µM (active)
same,GI50,HCC 2998,1.31 µM (inactive)
same,GI50,HOP-62,0.379 µM (active)
same,GI50,UACC-62,0.201 µM (active)
same,GI50,HOP-92,0.951 µM (active)
same,GI50,A498,0.371 µM (active)
same,GI50,M14,0.179 µM (active)
same,GI50,TK-10,6.31 µM (inactive)
same,GI50,ACHN,0.402 µM (active)
same,GI50,T47D,10.6 µM (inactive)
